Reference: US20240327339A1, “COMPOSITIONS AND METHODS FOR TREATING AND PREVENTING VIRAL INFECTIONS” (priority 2021, published 2024)
pIC50: −log10 of the molar value. Values after ≈ are worked out from the molar mass of the structure shown. “Also recorded” adds a separate entry of the source. Read-outs that look alike come from different tables or passages of the source.

Assays:
[1] = system: RSV; settings: cited from earlier work
[2] = system: Measles virus; experiment: Measles virus plaque assay; format: cell-based; settings: HEp2 and Vero cells treated before infection; MOI=0.01; 72 hours
Procedure: (§1) Plate 4×10^4/well of Vero-E6 or Hep-2 cells to be 95-100% confluent the next day. The next day make fresh dilutions of Probenecid were made. From a stock concentration of 10 mM in 100% DMSO, dilutions were made with half DMSO and half DMEM with 4% BSA fraction. FBS inhibits some viruses. Media was decanted and dilutions of probenecid were added to cells. Controls: DMSO/Media mixture, Media with no Probenecid, Media with no virus. Probenecid dilutions were left on cells for 24 hrs. After 24 hrs, media was decanted and virus was added (MOI=0.01/well). Virus was diluted to MOI=0.01 per 100 uL with DMEM. Left virus inoculum on cells for 1 hr. After 1 hr, infection media was decanted and replaced with dilutions of Probenecid. For Immunostaining, plates were left for 24 hrs before fixing cells. For Plaque Assays, plates were left for 72 hrs before freezing at −80 C.
For plaque assays of probenecid treated cells, cells were treated with various concentrations of Probenecid before being infected with Measles virus (MOI=0.01). After 72 hours, cells were frozen until plaque assay. Plaque concentrations are recorded as log 10 PFU/mL.

[3] = Preliminary virology data used for pediatric simulations; settings: virus not stated
Procedure: Simulations were also conducted in pediatric subjects. Allometric scaling based on body weights used as an empirical approach to predict concentrations in pediatric subjects. 10 mg/kg qd, 10 mg/kg bid, 20 mg/kg qd, 20 mg/kg bid dose was simulated. IC50 from preliminary virology data is 1 nM.

[4] = system: influenza virus; experiment: Influenza assays in A549 cells; format: cell-based
Procedure: Experiment Conducted in A549 Cells.
[…] with influenza virus (MOI=0.1) for 1 hour
The virus is plaqued in MDCK cells while studies are carried out in human respiratory epithelial cells.

[5] = system: Memphis-37; experiment: In vitro probenecid inhibition assay, Memphis-37 (plaque assay); format: cell-based, human RSV strain A; settings: for pIC50 / IC90: human respiratory syncytial virus; for virus replication compared to control (DMSO only): Vero E6, HEp-2 and NHBE cells
[6] = system: Mumps (Jones) virus; experiment: Mumps assay in Vero-P cells; format: cell-based; settings: MOI=0.1, FIG. 10
Excerpt: (§2) Experiments Conducted in Vero-P Cells.

[7] = system: RSV B1; experiment: In vitro probenecid inhibition assay, RSV B1 (plaque assay); format: cell-based, respiratory syncytial virus (RSV); settings: for pIC50 / IC90: human respiratory syncytial virus; for IC90: up to 100 μM; for virus replication compared to control (DMSO only): Vero E6, HEp-2 and NHBE cells
[8] = system: Burkholderia; experiment: Bacterial replication in macrophage; settings: macrophage-associated bacteria
[9] = system: Measles virus; experiment: Measles virus syncytia immunostaining; format: cell-based
Procedure: as §1
The immunostaining protocol generally included fixing cells with 4% formaldehyde in PBS (50 uL) for 15-20 min at room temp, rinsing cells 3× with PBS (100 uL), and optionally storing cells at 4° C. in PBS until ready to stain. Permeabilizing cells with 0.05% TritonX-100 in PBS (100 uL) for 10 min at room temp, rinsing cells 3× with PBS (100 uL), blocking with 3% BSA-PBS (100 uL) for 1 hr at 37° C. or overnight at 4° C. Blocking solution was removed and cells were incubated with primary antibody (mouse mAb uNP, Millipore MAB8906) at 1:10,000 dilution (100 uL) for 1 hour (antibody diluted in 3% BSA-PBS). Cells were washed 3× with KPL Buffer (100 uL), incubated for 45 min with secondary antibody (Goat uMouse conjugated with Alex flour 488) in the dark at 37° C. (antibody diluted in 3% BSA-PBS). Cells were washed 3× with KPL Buffer in the dark (100 uL), rapidly stained with DAPI (1 ug/mL) for 10 min in the dark, washed 3× with PBS in the dark and stored in 200 ul of PBS until visualization.
Experiments were designed to test the prophylactic effect of probenecid on measles virus infection. Cells were infected with measle virus with, or without, probenecid treatment and immunostained for syncytia. […]

[10] = system: SLC22A8 (OAT3) transcripts; experiment: OAT3 expression in HEp-2 cells (qPCR); settings: HEp-2 cells treated with IC90 of probenecid [7.2 uM] for 24 h
[11] = system: Dengue Type 1 virus; experiment: Dengue assay in Vero-P cells; settings: MOI=0.1, FIG. 12
[12] = system: SARS-CoV-2; settings: ten non-hospitalized patients, mild to moderate infection; 28 day; cited from earlier work
[13] = system: hMPV CAN83 (A2 strain); experiment: hMPV challenge of BALB/c mice; format: in vivo; settings: 24 h prior to or 24 h post infection; lungs 5 dpi; FIGS. 26A-26B
Procedure: BALB/c mice were prophylactically (24 h prior to) or post-infection (24 h post) (“treatment”) treated with probenecid at the indicated concentrations. Mice (n=5/sex/group) were challenged i.n. with 1e6 PFU hMPV CAN83 (A2 strain). Lungs were collected 5 dpi and a plaque assay performed. The results are illustrated in FIGS. 26A-26B.

[14] = system: A/WSN/33 (H1N1); settings: Perwitasari et al. 2013; cited from earlier work
[15] = in vivo, cited from earlier work
[16] = system: SARS-CoV-2; experiment: SARS-CoV-2 IC90 (Investigator Brochure); settings: Severe acute respiratory syndrome coronavirus 2, read-out: IC90 level corrected for 95% protein binding
[17] = system: E. coli; experiment: Killing of free bacteria
[18] = system: RSV A2; experiment: In vivo inhibition study, BALB/c mouse model of RSV infection; parameters: species or system BALB/c mice; settings: 2 or 200 mg/kg i.p., 24 h before or 24 h after infection, days 3, 5, 7 pi
[19] = system: A/WSN/33 (H1N1); experiment: A/WSN/33 (H1N1) IC50 (Perwitasari et al.); format: cell-based; settings: Influenza A virus; converted from 0.5 nM
[20] = system: RSV A2; experiment: In vitro probenecid inhibition assay, RSV A2 (plaque assay); format: cell-based, respiratory syncytial virus (RSV); settings: for pIC50 / IC90: human respiratory syncytial virus; for virus replication compared to control (DMSO only): Vero E6, HEp-2 and NHBE cells
[21] = system: SARS-CoV-2; settings: 90% inhibition of COVID-19 viral replication; Investigator Brochure; read-out: IC90 level; cited from earlier work
[22] = system: SARS-CoV-2; settings: cited from earlier work
[23] = system: adenovirus serotype 5 (Ad5); experiment: Ad5 infection of A549 cells; format: cell-based; settings: only limited conditions tested
[24] = system: Zika (MR766) virus; experiment: Zika assay in Vero-P cells; format: cell-based; settings: MOI=0.1, FIG. 11
Excerpt: as §2

[25] = Vero C1008, Prophylaxis (24 h before infection), Vero E6 cells
[26] = Vero C1008, Treatment (24 h after infection), Vero E6 cells
[27] = Prophylaxis (24 h before infection), HEp-2 cells
[28] = Prophylaxis (24 h before infection), NHBE cells
[29] = Treatment (24 h after infection), HEp-2 cells
[30] = Treatment (24 h after infection), NHBE cells

In the case of `NC(=O)c1ncn([C@@H]2O[C@H](CO)[C@@H](O)[C@H]2O)n1` [Ribavirin], the therapeutic results ([1]; inhaled) is given as “mixed-to-poor results”.

In the case of “palivizumab: a humanized monoclonal antibody targeting the F protein”, the reduction of hospitalizations ([1]; treated high-risk infants, monthly administration) is listed as “approximately 50%”.

For `CCCN(CCC)S(=O)(=O)c1ccc(C(=O)O)cc1` [Probenecid, 4-[(dipropylamino)sulfonyl] benzoic acid], the plaque titers [2] was “below the limit of detection”, the pIC50 [3] was 9.00 and the IC50 for flu [4] was “in the picomolar range”. The pIC50 [5, 25] was 7.52, the IC90 [5, 25] was 0.27 µM and the pIC50 [5, 26] was 6.40. For the same molecule, the IC90 [5, 26] was 3.6 µM, the pIC50 [5, 27] was 7.40 and the IC90 [5, 27] was 0.36 µM. For the same molecule, the pIC50 [5, 28] was 6.80, the IC90 [5, 28] was 1.44 µM and the pIC50 [5, 29] was 6.30. For the same molecule, the IC90 [5, 29] was 4.5 µM, the pIC50 [5, 30] was 6.70 and the IC90 [5, 30] was 1.8 µM. For the same molecule, the “virus replication compared to control (DMSO only)” value ([5]; prophylaxis 24 h before Memphis-37 infection, FIG. 5) was “significantly (**** p<0.0001) inhibited the virus replication”, the “virus replication compared to control (DMSO only)” value ([5]; treated 24 h after Memphis-37 infection, FIG. 6) was “significantly (**** p<0.0001) inhibited the virus replication” and the “inhibition of virus replication” value [6] was “picomolar levels of probenecid were effective at inhibiting virus replication”. The pIC50 [7, 25] was 6.07, the IC90 [7, 25] was greater than 100 µM and the pIC50 [7, 26] was 5.70. It also gave an IC90 [7, 26] greater than 100 µM, a pIC50 [7, 27] of 6.10 and an IC90 [7, 27] greater than 100 µM. It also gave a pIC50 [7, 28] of 6.10, an IC90 [7, 28] greater than 100 µM and a pIC50 [7, 29] of 6.05. The IC90 [7, 29] was greater than 100 µM, the pIC50 [7, 30] was 5.92 and the IC90 [7, 30] was greater than 100 µM. For the same molecule, the “virus replication compared to control (DMSO only)” value ([7]; prophylaxis 24 h before RSV B1 infection, FIG. 3) was “significantly (**** p<0.0001) inhibited the virus replication”, the “virus replication compared to control (DMSO only)” value ([7]; treated 24 h after RSV B1 infection, FIG. 4) was “significantly (**** p<0.0001) inhibited the virus replication” and the killing of bacteria [8] was “did not kill bacteria”. For the same molecule, the syncytia per well ([9]; 1 uM Probenecid, 24 hrs, NP fluorescence stain) was “no syncytia were detected”, the “concentration also effective on MeV” value ([9]; Hep-2 cells, other assays) was 0.03 UM and the pIC50 ([9]; Measles morbillivirus, probenecid dilution assay, FIG. 14A, read-out: IC50 (average syncytia per well)) was 9.10. The “OAT3 Raw Ct Value” [10] was “undetectable levels of OAT3 transcripts; also recorded: No Ct”, the “inhibition of virus replication” value [11] was “picomolar levels of probenecid were effective at inhibiting virus replication” and the patient symptoms [12] was “patient symptoms showed improvement”. For the same molecule, the “effect on hMPV infection (lung plaque assay)” value [13] was “Prophylactically and Therapeutically Reduces Human Metapneumovirus (HMPV) Infection”, the pIC50 [14] was 9.30 and the absorption ([15]; po) was “completely absorbed after oral administration”. For the same molecule, the “time to peak plasma concentration” value ([15]; po) was 2 to 4 h, the half life [15] was 6 to 12 h and the half-life in plasma [15] was “less than 5 hr to more than 8 hr”. The IC90 [16] was 2.08 µg/mL (≈ 7.29 µM), the killing of bacteria [17] was “did not kill bacteria” and the “lung virus titers compared to control (PBS)” value ([18]; female BALB/c mice) was “significantly (p<0.0001) reduced lung virus titer; also recorded: significant (**** p<0.0001) reduction in lung viral titers”. For the same molecule, the “lung virus titers compared to control (PBS)” value ([18]; male BALB/c mice) was “significantly (p<0.0001) reduced lung virus titer; also recorded: significant (**** p<0.0001) reduction in lung viral titers”, the IC50 [19] was 0.000143 µg/mL (≈ 0.000501 µM) and the pIC50 [20, 25] was 7.15. It also gave an IC90 [20, 25] of 0.63 µM, a pIC50 [20, 26] of 7.00 and an IC90 [20, 26] of 2.7 µM. It also gave a pIC50 [20, 27] of 6.10, an IC90 [20, 27] of 7.2 µM and a pIC50 [20, 28] of 6.40. For the same molecule, the IC90 [20, 28] was 3.6 µM, the pIC50 [20, 29] was 5.92 and the IC90 [20, 29] was 10.8 µM. The pIC50 [20, 30] was 6.52, the IC90 [20, 30] was 2.7 µM and the “virus replication compared to control (DMSO only)” value ([20]; prophylaxis 24 h before RSV A2 infection, FIG. 1) was “significantly (**** p<0.0001) inhibited the virus replication”. The “virus replication compared to control (DMSO only)” value ([20]; treated 24 h after RSV A2 infection, FIG. 2) was “significantly (**** p<0.0001) inhibited the virus replication”, the IC90 [21] was 0.364 µM and the “efficacy at treating SARS-CoV-2” value ([22]; hamsters, 2 mg/kg and 200 mg/kg) was “both effective at treating SARS-CoV-2 in hamsters in vivo”. The “effect on virus replication and inflammatory response” value ([22]; in vitro and pre-clinical hamster studies (WO 2021/207606)) was “block replication of the SARS-CoV-2 virus and the associated acute inflammatory response to the infection”, the effect on infection [23] was “did not statistically significantly reduce infection” and the “inhibition of virus replication” value [24] was “picomolar levels of probenecid were effective at inhibiting virus replication”.
